Laboratory results: PubChem BioAssay (NCI)
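Method: 48-hour compound exposure of cells in 96-well plates, five concentrations, linear interpolation of endpoints. TGI: concentration producing complete growth inhibition.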

Columns and labels:
Experiment in all cases: NCI anticancer screen, dose series, 48 h
HS 578T breast = tested on: HS 578T breast
EKVX NSCLC = tested on: EKVX NSCLC
LOX IMVI melanoma = tested on: LOX IMVI melanoma
CCRF-CEM leukemia = tested on: CCRF-CEM leukemia
RXF 393 renal = tested on: RXF 393 renal
MDA-MB-435 = tested on: MDA-MB-435
KM12 colon = tested on: KM12 colon
BT-549 breast = tested on: BT-549 breast

Row | SMILES | TGI (HS 578T breast) | TGI (EKVX NSCLC) | TGI (LOX IMVI melanoma) | TGI (CCRF-CEM leukemia) | TGI (RXF 393 renal) | TGI (MDA-MB-435) | TGI (KM12 colon) | TGI (BT-549 breast)
1 | CC1(C)C(CCO)CC1n1ccc(=O)[nH]c1=O (stereo not given) | > 100 µM | > 100 µM | > 100 µM | > 100 µM | > 100 µM | > 100 µM | > 100 µM | –
2 | C[N+](C)(C)C=Nc1cccc2c1CCCC2 | > 100 µM | > 100 µM | > 100 µM | > 100 µM | > 100 µM | > 100 µM | – | > 100 µM
3 | [O-][n+]1c(CN2CCCCC2)nc2cccc3c2c1-c1ccccc1-3 | – | 49.2 µM | 46.8 µM | – | 31.1 µM | 68 µM | > 100 µM | > 100 µM
4 | CCN(CC)CCCNC(=O)c1cc2cc(NC(=O)c3cc4cc([N+](=O)[O-])ccc4[nH]3)ccc2[nH]1 | – | > 100 µM | – | – | > 100 µM | > 100 µM | > 100 µM | > 100 µM
5 | O=S(=O)(O)c1cccc2cccc(N=Nc3c(O)ccc4ccccc34)c12 | > 100 µM | > 100 µM | – | > 100 µM | > 100 µM | > 100 µM | > 100 µM | > 100 µM
6 | C=C1[C@@](C)([C@@H]2CCCS2)[C@H]2C(C)=C[C@]1(C)n1c(=O)n(-c3ccccc3)c(=O)n12 | > 100 µM | > 100 µM | – | > 100 µM | – | > 100 µM | > 100 µM | > 100 µM
7 | CC(=O)OC12c3ccccc3C(c3ccccc31)C1C(=O)N(c3ccccn3)C(=O)C12 (stereo not given) | > 100 µM | > 100 µM | > 100 µM | > 100 µM | > 100 µM | – | > 100 µM | > 100 µM
8 | O=C1C=C2CCC[C@H]3OC(=O)C[C@@]23CC1 | > 100 µM | > 100 µM | > 100 µM | – | > 100 µM | > 100 µM | > 100 µM | –
9 | Cc1ccc(S(=O)(=O)[C@@H](Cl)[C@H]2N=C(Cl)NN=C2c2ccccc2)cc1 | – | > 100 µM | 51.8 µM | 75 µM | 37.3 µM | 51.4 µM | 50 µM | 59 µM
10 | Cc1ccc(-c2nnc(CCCCCCCCc3nnc(-c4ccc(C)cc4O)n3N)n2N)c(O)c1 | > 100 µM | > 100 µM | > 100 µM | – | – | > 100 µM | > 100 µM | –
11 | NC(Cc1c[nH]c2cc([N+](=O)[O-])ccc12)C(=O)O (stereo not given) | > 100 µM | > 100 µM | > 100 µM | – | > 100 µM | > 100 µM | > 100 µM | > 100 µM
